Test results from patent US11173145B2, “Compounds useful as inhibitors of indoleamine 2,3-dioxygenase and/or tryptophan dioxygenase” (Board of Regents, The University of Texas System, priority 2017, dated 2021).

Biological target: T1, IDO1 (Homo sapiens, UniProt P14902)
T1 construct: endogenous in cells; host or cells: HeLa cells (ATCC), IFNgamma-induced
Assay: IDO1 cell-based assay (HeLa cells, IFNgamma-induced, N-formylkynurenine/L-tryptophan by RFMS)
Conditions: 10 ng/mL IFNgamma, 24 hours
Method in brief: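 HeLa cells stimulated with 10 ng/mL IFNgamma and exposed to compound (0.5% DMSO final) for 24 h at 37 °C. Conditioned media deproteinized, then N-formylkynurenine and L-tryptophan quantified by RapidFire MS with deuterated tryptophan internal standard; IC50 by curve fitting. Viability checked by CellTiter-Glo.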

T1 sequence (P14902 whole entry): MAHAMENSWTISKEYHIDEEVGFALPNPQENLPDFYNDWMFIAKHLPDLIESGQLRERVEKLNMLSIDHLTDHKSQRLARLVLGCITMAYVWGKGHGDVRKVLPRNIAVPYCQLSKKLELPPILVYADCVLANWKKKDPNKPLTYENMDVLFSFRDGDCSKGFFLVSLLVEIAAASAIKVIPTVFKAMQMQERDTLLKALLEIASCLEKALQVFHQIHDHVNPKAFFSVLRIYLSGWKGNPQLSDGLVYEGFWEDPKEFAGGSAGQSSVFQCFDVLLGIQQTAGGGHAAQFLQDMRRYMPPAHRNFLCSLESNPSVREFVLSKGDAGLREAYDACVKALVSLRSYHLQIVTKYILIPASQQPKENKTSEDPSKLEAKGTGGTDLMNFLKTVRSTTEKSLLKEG

Row | SMILES | IC50 [nM]
1 | C[C@@H](NC(=O)c1ccc(Cl)cc1)[C@H]1[C@@H]2C[C@@H](Oc3cc(Cl)ccc3C(=O)O)C[C@@H]21 [Compound 341, 4-chloro-2-(((1R,3S,5S,6r)-6-((R)-1-(4-chlorobenzamido)ethyl)bicyclo[3.1.0]hexan-3-yl)oxy)benzoic acid] | 2000 to 5000
2 | CC[C@@H](NC(=O)c1ccc(Cl)cc1)[C@H]1[C@@H]2C[C@@H](n3nccc3C3CC3)C[C@@H]21 [Compound 342, 4-chloro-N-((R)-1-((1R,3S,5S,6r)-3-(5-cyclopropyl-1H-pyrazol-1-yl)bicyclo[3.1.0]hexan-6-yl)propyl)benzamide] | < 200
3 | CCC(NC(=O)c1ccc(Cl)cc1)[C@H]1[C@@H]2C[C@@H](Oc3cccc(C)n3)C[C@@H]21 (stereo partly drawn) [Compound 40, 4-chloro-N-(1-((1R,3s,5S,6r)-3-((6-methylpyridin-2-yl)oxy)bicyclo[3.1.0]hexan-6-yl)propyl)benzamide] | < 200
4 | CCC(NC(=O)c1ccc(Cl)cc1)C1C2CC(OCC3CCOCC3)CC21 [Compound 96, 4-chloro-N-(1-((1R,3s,5S,6r)-3-((tetrahydro-2H-pyran-4-yl)methoxy)bicyclo[3.1.0]hexan-6-yl)propyl)benzamide] | < 200
5 | O=C(NC1C2CC(Oc3ccnc4ccccc34)CC21)c1ccc(Cl)cc1 (stereo not shown) [Compound 26, 4-chloro-N-(3-(quinolin-4-yloxy)bicyclo[3.1.0]hexan-6-yl)benzamide] | 200 to 2000
6 | CC[C@@H](NC(=O)c1ccc(Cl)cc1)[C@H]1[C@@H]2C[C@@H](Nc3ncnc4ccc(F)cc34)C[C@@H]21 [Compound 336, 4-chloro-N-((R)-1-((1R,3S,5S,6r)-3-((6-fluoroquinazolin-4-yl)amino)bicyclo[3.1.0]hexan-6-yl)propyl)benzamide] | < 200
7 | CCC(NC(=O)c1ccc(Cl)cc1)[C@H]1[C@@H]2C[C@@H](n3cnc4cc(F)ccc4c3=O)C[C@@H]21 (stereo partly drawn) [Compound 34, 4-chloro-N-(1-((1R,3s,5S,6r)-3-(7-fluoro-4-oxoquinazolin-3(4H)-yl)bicyclo[3.1.0]hexan-6-yl)propyl)benzamide] | < 200
8 | CC(C(=O)Nc1ccc(Cl)cc1)[C@H]1[C@@H]2C[C@@H](Oc3ncnc4ccc(F)cc34)C[C@@H]21 (stereo partly drawn) [Compound 339, N-(4-chlorophenyl)-2-((1R,3s,5S,6r)-3-((6-fluoroquinazolin-4-yl)oxy)bicyclo[3.1.0]hexan-6-yl)propanamide] | < 200
9 | CCC(NC(=O)c1ccc(Cl)cc1)[C@H]1[C@@H]2C[C@@H](n3cnnc3C3CC3)C[C@@H]21 (stereo partly drawn) [Compound 172, 4-chloro-N-(1-((1R,3s, 5S, 6r)-3-(3-cyclopropyl-4H-1,2,4-triazol-4-yl)bicyclo[3.1.0]hexan-6-yl)propyl)benzamide] | 200 to 2000
10 | CCC(NC(=O)c1ccc(Cl)cn1)C1C2CC(n3cnc4ccc(F)cc4c3=O)CC21 [Compound 75, 5-chloro-N-(1-((1R,3s,5S,6r)-3-(6-fluoro-4-oxoquinazolin-3(4H)-yl)bicyclo[3.1.0]hexan-6-yl)propyl)picolinamide] | < 200
11 | C[C@@H](C(=O)Nc1ccc(Cl)cc1)[C@H]1[C@@H]2C[C@@H](n3cnc4cc(F)c(F)cc43)C[C@@H]21 [Compound 298, (R)-N-(4-chlorophenyl)-2-((1R,3S,5S,6r)-3-(5,6-difluoro-1H-benzo[d]imidazol-1-yl)bicyclo[3.1.0]hexan-6-yl)propanamide] | < 200
12 | CC[C@@H](NC(=O)Nc1ccc(Cl)c(F)c1)[C@H]1[C@@H]2C[C@@H](n3cnc4cc(F)c(F)cc43)C[C@@H]21 [Compound 349, 1-(4-chloro-3-fluorophenyl)-3-((R)-1-((1R,3S,5S,6r)-3-(5,6-difluoro-1H-benzo[d]imidazol-1-yl)bicyclo[3.1.0]hexan-6-yl)propyl)urea] | < 200
13 | COC(=O)C(NC(=O)c1ccc(Cl)cc1)[C@H]1[C@@H]2C[C@@H](n3cc(C4CC4)nn3)C[C@@H]21 (stereo partly drawn) [Compound 169, methyl 2-(4-chlorobenzamido)-2-((1R,3s,5S,6r)-3-(4-cyclopropyl-1H-1,2,3-triazol-1-yl)bicyclo[3.1.0]hexan-6-yl)acetate] | 200 to 2000
14 | CCC(NC(=O)c1ccc(Cl)cc1)[C@H]1[C@@H]2C[C@@H](Oc3ccc4c(Cl)ccnc4c3)C[C@@H]21 (stereo partly drawn) [Compound 57, 4-chloro-N-(1-((1R,3s,5S,6r)-3-((4-chloroquinolin-7-yl)oxy)bicyclo[3.1.0]hexan-6-yl)propyl)benzamide] | 200 to 2000
15 | CC[C@@H](NC(=O)C1(C(F)(F)F)CC1)[C@H]1[C@@H]2C[C@@H](n3cnc4cc(F)c(F)cc43)C[C@@H]21 [Compound 352, N-((R)-1-((1R,3S,5S,6r)-3-(5,6-difluoro-1H-benzo[d]imidazol-1-yl)bicyclo[3.1.0]hexan-6-yl)propyl)-1-(trifluoromethyl)cyclopropane-1-carboxamide] | 200 to 2000
16 | CCC(NC(=O)c1ccc(Cl)cc1)[C@H]1[C@@H]2C[C@@H](n3cnc4cc(Cl)ccc4c3=O)C[C@@H]21 (stereo partly drawn) [Compound 53, 4-chloro-N-(1-((1R,3s,5S,6r)-3-(7-chloro-4-oxoquinazolin-3(4H)-yl)bicyclo[3.1.0]hexan-6-yl)propyl)benzamide] | < 200

Row | SMILES | IC50 [nM]
17 | CCC(NC(=O)c1ccc(Cl)cc1)[C@H]1[C@@H]2C[C@@H](Oc3ncnc4cc(F)ccc34)C[C@@H]21 (stereo partly drawn) [Compound 35, 4-chloro-N-(1-((1R,3s,5S,6r)-3-((7-fluoroquinazolin-4-yl)oxy)bicyclo[3.1.0]hexan-6-yl)propyl)benzamide] | < 200
18 | C[C@@H](NC(=O)c1ccc(C#N)cc1)[C@H]1[C@@H]2C[C@@H](O)C[C@@H]21 [Compound 297, 4-cyano-N-((R)-1-((1R,3S,5S,6r)-3-hydroxybicyclo[3.1.0]hexan-6-yl)ethyl)benzamide] | > 5000
19 | CC[C@@H](NC(=O)c1cccc(C#N)c1)[C@H]1[C@@H]2C[C@@H](n3cnc4cc(F)c(F)cc43)C[C@@H]21 [Compound 313, 3-cyano-N-((R)-1-((1R,3S,5S,6r)-3-(5,6-difluoro-1H-benzo[d]imidazol-1-yl)bicyclo[3.1.0]hexan-6-yl)propyl)benzamide] | < 200
20 | Clc1ccc(-c2nnc(C3C4CC(Oc5ccnc6ccccc56)CC43)o2)cc1 (stereo not shown) [Compound 11, 2-(4-chlorophenyl)-5-(3-(quinolin-4-yloxy)bicyclo[3.1.0]hexan-6-yl)-1,3,4-oxadiazole] | > 5000
21 | CCC(NC(=O)c1ccc(Cl)cc1)[C@H]1[C@@H]2C[C@@H](Nc3ccc(C#N)cc3[N+](=O)[O-])C[C@@H]21 (stereo partly drawn) [Compound 269, 4-chloro-N-(1-((1R,3s,5S,6r)-3-((4-cyano-2-nitrophenyl)amino)bicyclo[3.1.0]hexan-6-yl)propyl)benzamide] | < 200
22 | CCOC(=O)CC(NC(=O)c1ccc(Cl)cc1)[C@H]1[C@@H]2C[C@@H](Oc3cnnc4ccccc34)C[C@@H]21 (stereo partly drawn) [Compound 84, ethyl 3-(4-chlorobenzamido)-3-((1R,3s,5S,6r)-3-(cinnolin-4-yloxy)bicyclo[3.1.0]hexan-6-yl)propanoate] | < 200
23 | CCC(NC(=O)c1ccc(Cl)cc1)C1C2CC(Oc3cc(C(F)(F)F)nc4ccc(F)cc34)CC21 [Compound 22, 4-chloro-N-(1-((1R,3s,5S,6r)-3-((6-fluoro-2-(trifluoromethyl)quinolin-4-yl)oxy)bicyclo[3.1.0]hexan-6-yl)propyl)benzamide] | < 200
24 | CC[C@@H](NC(=O)c1ccc(Cl)cc1)[C@H]1[C@@H]2C[C@@H](n3cc(C4CC4)cn3)C[C@@H]21 [Compound 348, 4-chloro-N-((R)-1-((1R,3S,5S,6r)-3-(4-cyclopropyl-1H-pyrazol-1-yl)bicyclo[3.1.0]hexan-6-yl)propyl)benzamide] | < 200
25 | CCC(NC(=O)c1ccc(Cl)cc1)[C@H]1[C@@H]2C[C@@H](NC(=O)c3cnccn3)C[C@@H]21 (stereo partly drawn) [Compound 152, N-((1R,3s,5S,6r)-6-(1-(4-chlorobenzamido)propyl)bicyclo[3.1.0]hexan-3-yl)pyrazine-2-carboxamide] | < 200
26 | CC[C@@H](NC(=O)c1ccc(Cl)cc1)[C@H]1[C@@H]2C[C@@H](c3ccnc4ccc(F)cc34)C[C@@H]21 [Compound 266, 4-chloro-N—((R)-1-((1R,3S,5S,6r)-3-(6-fluoroquinolin-4-yl)bicyclo[3.1.0]hexan-6-yl)propyl)benzamide] | < 200
27 | CC[C@@H](NC(=O)NC1CC1)[C@H]1[C@@H]2C[C@@H](n3cnc4cc(F)c(F)cc43)C[C@@H]21 [Compound 357, 1-cyclopropyl-3-((R)-1-((1R,3S,5S,6r)-3-(5,6-difluoro-1H-benzo[d]imidazol-1-yl)bicyclo[3.1.0]hexan-6-yl)propyl)urea] | 200 to 2000
28 | CCC(NC(=O)c1ccc(Cl)cc1)[C@H]1[C@@H]2C[C@@H](Oc3cncc(F)c3)C[C@@H]21 (stereo partly drawn) [Compound 58, 4-chloro-N-(1-((1R,3s,5S,6r)-3-((5-fluoropyridin-3-yl)oxy)bicyclo[3.1.0]hexan-6-yl)propyl)benzamide] | < 200
29 | CCC(NC(=O)c1ccc(Cl)cc1)[C@H]1[C@@H]2C[C@@H](Oc3ccccc3CN(C)C)C[C@@H]21 (stereo partly drawn) [Compound 48, 4-chloro-N-(1-((1R,3s,5S,6r)-3-(2-((dimethylamino)methyl)phenoxy)bicyclo[3.1.0]hexan-6-yl)propyl)benzamide] | 2000 to 5000
30 | CCC(NC(=O)c1ccc(Cl)cc1)[C@H]1[C@@H]2C[C@@H](NC(=O)N3CCNCC3)C[C@@H]21 (stereo partly drawn) [Compound 156, N-((1R,3s,5S,6r)-6-(1-(4-chlorobenzamido)propyl)bicyclo[3.1.0]hexan-3-yl)piperazine-1-carboxamide] | > 5000
31 | O=S(=O)(NC1C2CC(Oc3ccnc4ccccc34)CC21)c1ccc(Cl)cc1 (stereo not shown) [Compound 28, 4-chloro-N-(3-(quinolin-4-yloxy)bicyclo[3.1.0]hexan-6-yl)benzenesulfonamide] | > 5000
